Results as given in PMC3723252, “Trypanocidal Activity of Thioamide-Substituted Imidazoquinolinone: Electrochemical Properties and Biological Effects” (Evidence-based Complementary and Alternative Medicine : eCAM, 2013).
Where two headings read alike, the source gives them in different places.

Tests used:
[1] = test system: Trypanosoma cruzi epimastigotes (Tulahuen strain); assay: Growth inhibition of epimastigotes (cell counting, 4 days); type: cell-based; conditions: 96 h, read-out: Epimastigotes IC50
Protocol: (§1) Trypanosoma cruzi epimastigotes (Tulahuen strain) were grown as previously described. Bloodstream trypomastigotes were obtained from infected CF1 mice by cardiac puncture. Tulahuen strain expressing the β-galactosidase gene was kindly provided by Dr Buckner (University of Washington, USA).
(§2) Cells growth was assessed by counting the number of cells per mL of culture using a Neubauer chamber and was expressed as cellular density (CD). The percentage of inhibition (%I) was calculated as %I = {1 − [(CD4t − CD0)/(CD4c − CD0)]} × 100, where the different CDs represent the cellular density of CD4t, treated parasites on day 4; CD0, parasites on day 0; and CD4c, untreated parasites (control) on day 4.
(§3) The results presented are representative of three to four separate experiments, performed in duplicates or triplicates. All data are expressed as means ± standard errors of the mean (SEM). To calculate the IC50 values, the %I or %L values were plotted against the log of drug concentration (μM) and fitted with a straight line determined by a linear regression (Sigma Plot 10 software). The significance of differences was evaluated using Student' t test, taking a P < 0.05 as significant. Flow cytometry data were analyzed employing the WinMDI 2.9 software.

[2] = test system: bloodstream trypomastigotes; assay: Trypanocidal effect on bloodstream trypomastigotes (24 h, mouse blood); type: cell-based; conditions: Trypanosoma cruzi, % lysed parasites
Protocol: as §1
The trypanocidal effects of C1, C2, C3, D and Bnz were also tested on bloodstream trypomastigotes according to a standard WHO protocol slightly modified. Briefly, mouse blood containing trypomastigotes was treated with different concentrations of each compound (0.30 to 350 μM) or Bnz (0.38 to 38 μM). Plates were incubated for 24 h, and surviving parasites were counted in a Neubauer chamber as previously described. Results were expressed as the percentage of lysed parasites (%L) relative to the number of parasites in the control: %L = [1 − (CDt/(CDc)] × 100, where CDt and CDc represent the cellular density of treated and untreated parasites, respectively.
as §3

[3] = test system: amastigotes (Tulahuen strain expressing the β-galactosidase gene) in J774 cells; assay: Amastigote assay in infected J774 cells (β-galactosidase, CPRG); type: cell-based; conditions: Trypanosoma cruzi, 168 h, 7 days
Protocol: as §1
For analysis of amastigotes, J774 cells were infected with bloodstream trypomastigotes expressing the β-galactosidase gene at a parasite: cell ratio of 10 : 1. After 24 h, cell cultures were washed and each compound (2 to 100 μM) was added in fresh RPMI medium without phenol red (to avoid interference with absorbance readings at 570 nm). After 7 days, the assay was developed as described. The galactosidase activity was quantified using CPRG as substrate and measuring absorbance at 570 nm in a Microplate Reader (Bio-Rad Laboratories). Since the assayed compounds are coloured, blanks including uninfected cells with different doses of each compound were performed. The percentage of inhibition was calculated as %I = {1 − [(A it − A nit)/(A ic − A nic)]} × 100, where A represents the mean A 570 value recorded for A it, treated infected cells; A nit, treated noninfected cells; A ic, untreated infected cells; and A nic, untreated noninfected cells.
as §3

[4] = Cytotoxicity assay (MTT, 48 h); type: cell-based; conditions: African green monkey, Vero cells
Protocol: Vero cells were cultivated with different concentrations of each compound (12.5–100.0 μM) or Bnz (3.0–3000 μM). After 48 h of incubation, cells were washed and viability was measured by the MTT assay as previously described. The selectivity index (SI) was calculated as the 50% cytotoxic concentration (CC50) obtained with Vero cells divided by the 50% inhibitory concentration (IC50) obtained with T. cruzi.

Cyclic voltammetry = type: physicochemical
Protocol: Cyclic voltammograms for C1, C2, and C3 dissolved in 1% DMSO were carried out using an EQMAT instrument with an EQSOFT Processor, at a sweep rate of 0.2 V/s under a nitrogen atmosphere at room temperature, employing lithium perchlorate as supporting electrolyte. A three-electrode cell was used equipped with a vitreous carbon as working electrode, a gold wire as auxiliary electrode, and a saturated calomel as reference electrode.

[5] = test system: Epimastigotes of T. cruzi; assay: Mitochondrial membrane potential (DiOC6 staining); type: cell-based, Trypanosoma cruzi; conditions: 22.5 μM, 31% for the control (0 h)
Protocol: (§4) Epimastigotes of T. cruzi from a 4 days culture were incubated with C1 (7.5–22.5 μM) during 5–36 hours. Cells were harvested, washed and then the following biochemical assays were carried out.
(§5) Mitochondrial membrane potential was assessed using two well-established assays: 3,3′-dihexyloxacarbocyanine iodide (DiOC6) staining and the cytochrome c release.
For the DiOC6 assay, epimastigotes (10^6) were permeabilized for 20 min at room temperature with 0.01% saponin, washed, and incubated with 30 nM DiOC6 for 30 min at 37°C. The positive control was done with 250 nM trifluoromethoxy carbonyl cyanide phenyl hydrazone (FCCP) as depolarizing agent. Stained cells were analyzed by flow cytometry with an excitation wavelength of 484 nm and an emission wavelength of 511 nm.

T. cruzi = assay: Effect of DTT, ascorbic acid and GSH on anti-T. cruzi activity of C1; type: cell-based, Trypanosoma cruzi
Protocol: as §2

[6] = test system: trypanothione reductase (TryR); assay: TryR activity in C1-treated epimastigotes; type: cell-based, Trypanosoma cruzi; conditions: control without C1 = 100%
Protocol: as §4
(§6) (b) Determination of Antioxidant Enzymes Activity. The activities of superoxide dismutase (SOD), ascorbate peroxidase (APx), and trypanothione reductase (TryR) were assayed as previously established.
(§7) Protein concentration was determined according to the method described by Lowry et al.. These values were used to express the specific enzymatic activities as activity per mg of protein.

[7] = test system: Epimastigotes of T. cruzi; assay: Intracellular oxidative activity (H2DCFDA flow cytometry); type: cell-based, Trypanosoma cruzi; conditions: 7.5, 15 and 22.5 μM; 5, 12 and 24 h; data not shown
Protocol: as §4
(a) Assay of Intracellular Oxidative Activity. The intracellular oxidative activity was assessed by flow cytometry using the oxidant-sensitive fluorescent probe H2DCFDA. As a positive control cells were treated with 0.1 mM H2O2. Stained cells were then analyzed by a FACSCalibur flow cytometer (Becton Dickinson) with an excitation wavelength of 480 nm and an emission wavelength of 530 nm. Flow cytometry results were expressed by the ratio Gmt/Gmc, where Gmt and Gmc correspond to the geometric mean of histograms obtained for treated and untreated cells, respectively.

[8] = test system: ascorbate peroxidase (APx); assay: APx activity in C1-treated epimastigotes; type: cell-based, Trypanosoma cruzi; conditions: control without C1 = 100%
Protocol: as §4, §6, §7

[9] = test system: Epimastigotes of T. cruzi; assay: Cytochrome c release (Western blot, densitometry); type: cell-based, Trypanosoma cruzi; conditions: 22.5 μM, at 36 h, relative to level detected after 24 h
Protocol: as §4, §5
To evaluate the cytochrome c release, parasites (3 × 10^8) were resuspended in PBS containing 200 μg/mL digitonin, incubated on ice for 15 min and then centrifuged at 9 000 ×g for 10 min at 4°C. Both, mitochondrial-rich fraction (pellet, resuspended in 50 μL of PBS) and cytosolic fraction (150 μL) were subjected to Western-blot analysis for cytochrome c. Protein extracts (10 μL and 30 μL of mitochondrial and cytosolic fractions, resp.) were resolved by 14% SDS/PAGE, transferred to nitrocellulose membranes, blocked with 3% skimmed milk in PBS, and then incubated with specific antibodies, according to the protocol of Piacenza et al.. Relative intensities of bands were quantified by densitometry using Scion Image software (Scion). Results were expressed in arbitrary units.

[10] = test system: Epimastigotes of T. cruzi; assay: Determination of total thiol groups (DTNB); type: cell-based, Trypanosoma cruzi
Protocol: as §4
(c) Determination of Total Thiol Groups. The thiol groups content was determined employing the chromogenic compound 5,5′-dithiobis-2-nitrobenzoate (DTNB), as already described.

[11] = test system: Epimastigotes of T. cruzi; assay: Parasite death by Annexin V-FITC/PI staining (flow cytometry); type: cell-based, Trypanosoma cruzi; conditions: for early apoptotic cells / late apoptotic cells: 22.5 μM; for early apoptotic cells: 0.8% at 0 h; for late apoptotic cells: 2.8% at 0 h; for viability at 22.5 µM: Trypanosoma cruzi, 95.9% for control (0 h), read-out: viable nonapoptotic cells
Protocol: as §4
Cell viability and phosphatidylserine (PS) exposure on the parasite surface were assessed by propidium iodide (PI) and Annexin V-fluorescein isothiocyanate (FITC) staining, according to the manufacturer's instructions (Invitrogen). Epimastigotes exposed to 30% fresh human serum for 2 h at 28°C were used as positive control. Parasites were analysed by flow cytometry acquiring 20,000 events per sample.

[12] = test system: superoxide dismutase (SOD); assay: SOD activity in C1-treated epimastigotes; type: cell-based, Trypanosoma cruzi; conditions: control without C1 = 100%
Protocol: as §4, §6, §7

[13] = 1% DMSO, sweep rate 0.2 V/s, saturated calomel reference electrode

Cc1ccc(NC(=S)c2c3n(c(=O)c4ccccc24)CCN3)cc1 [Compound C3]
IC50 [1]: 1.5 ± 0.3 µM | IC50 [2]: 246 ± 18 µM | IC50 [3]: 1.5 ± 0.32 µM

O=C(Cn1ccnc1[N+](=O)[O-])NCc1ccccc1 [Bnz, Benznidazole, reference compound]
CC50 at 48 h [4]: 82.8 ± 2.75 µM | IC50 [1]: 5.49 ± 0.89 µM | IC50 [2]: 30.3 ± 2.85 µM

O=c1c2ccccc2c(C(=S)Nc2ccc(Cl)cc2)c2n1CCN2 [Compound C2, N-(4-chlorophenyl)-5-oxo-1,2,3,5-tetrahydroimidazo[1,2-b]isoquinolin-10-carbothioamide]
IC50 [1]: 5.57 ± 0.53 µM | IC50 [2]: 306 ± 15 µM | IC50 [3]: 3.63 ± 0.51 µM

O=C(Nc1ccccc1)c1c2n(c(=O)c3ccccc13)CCN2 [D, 5-oxo-N-phenyl-1,2,3,5-tetrahydroimidazo[1,2-b]isoquinolin-10-carboxamide]
IC50 [1]: > 25 µM | IC50 [2]: > 300 µM | IC50 [3]: 11.4 ± 1.21 µM

O=c1c2ccccc2c(C(=S)Nc2ccccc2)c2n1CCN2 [Compound C1, N-phenyl-5-oxo-1,2,3,5-tetrahydroimidazo[1,2-b]isoquinolin-10-carbothioamide]
anodic peak (irreversible oxidation) (Cyclic voltammetry; [13]): 0.78 V | cathodic peak (irreversible reduction) (Cyclic voltammetry; [13]): −1.04 V | Depolarized cells ([5]; 24 h): 77% | Depolarized cells ([5]; 36 h): 84% | IC50 [1]: 1.49 ± 0.28 µM | effect of DTT and ascorbic acid on the inhibitory action of the drug (T. cruzi; C1 1 up to 2.5 μM, at the antioxidant concentrations tested): considerably enhanced | effect of GSH on the inhibitory effect of C1 (T. cruzi; GSH 5 μM): completely abrogated | TryR activity (%) ([6]; 5 h, 7.5 µM): 152.23 ± 6.38 % | TryR activity (%) ([6]; 5 h, 15.0 µM): 177.17 ± 15.56 % | TryR activity (%) ([6]; 5 h, 22.5 µM): 143.89 ± 4.80 % | TryR activity (%) ([6]; 12 h, 7.5 µM): 188.60 ± 12.30 % | TryR activity (%) ([6]; 12 h, 15.0 µM): 251.62 ± 15.56 % | TryR activity (%) ([6]; 12 h, 22.5 µM): 190.55 ± 14.29 % | TryR activity (%) ([6]; 24 h, 7.5 µM): 165.23 ± 9.80 % | TryR activity (%) ([6]; 24 h, 15.0 µM): 198.27 ± 9.30 % | TryR activity (%) ([6]; 24 h, 22.5 µM): 163.56 ± 7.60 % | ratio Gmt/Gmc (H2DCFDA fluorescence) [7]: around 1 | APx activity (%) ([8]; 5 h, 7.5 µM): 111.26 ± 7.60% | APx activity (%) ([8]; 5 h, 15.0 µM): 98.31 ± 2.10% | APx activity (%) ([8]; 5 h, 22.5 µM): 105.20 ± 6.20% | APx activity (%) ([8]; 12 h, 7.5 µM): 98.30 ± 2.30% | APx activity (%) ([8]; 12 h, 15.0 µM): 95.91 ± 4.10% | APx activity (%) ([8]; 12 h, 22.5 µM): 93.48 ± 6.20% | APx activity (%) ([8]; 24 h, 7.5 µM): 108.35 ± 9.20% | APx activity (%) ([8]; 24 h, 15.0 µM): 105.30 ± 6.56% | APx activity (%) ([8]; 24 h, 22.5 µM): 96.25 ± 5.80% | increase of cytochrome c in the parasite cytosol [9]: 2.5–3 times | decrease of low molecular mass thiols ([10]; 22.5 μM, 24 h of incubation): not more than 20% | level of low molecular mass thiols ([10]; all C1 concentrations tested, 5 and 12 h, data not shown): remain constant | IC50 [2]: 34.9 ± 1.2 µM | early apoptotic cells ([11]; 24 h): 8.7% | late apoptotic cells ([11]; 24 h): 4.9% | early apoptotic cells ([11]; 36 h): 51.0% | late apoptotic cells ([11]; 36 h): 7.7% | viability at 22.5 µM ([11]; 24 h): 84.8% | viability at 22.5 µM ([11]; 36 h): 40.4% | IC50 [3]: 1.74 ± 0.3 µM | SOD activity (%) ([12]; 5 h, 7.5 µM): 95.85 ± 2.50% | SOD activity (%) ([12]; 5 h, 15.0 µM): 99.31 ± 4.30% | SOD activity (%) ([12]; 5 h, 22.5 µM): 90.09 ± 2.30% | SOD activity (%) ([12]; 12 h, 7.5 µM): 99.75 ± 2.90% | SOD activity (%) ([12]; 12 h, 15.0 µM): 103.92 ± 4.30% | SOD activity (%) ([12]; 12 h, 22.5 µM): 88.48 ± 3.20 % | SOD activity (%) ([12]; 24 h, 7.5 µM): 98.74 ± 7.30% | SOD activity (%) ([12]; 24 h, 15.0 µM): 89.78 ± 3.50 % | SOD activity (%) ([12]; 24 h, 22.5 µM): 78.27 ± 4.20 %

O=c1c2ccccc2cc2n1CCN2 [heterocycle precursor, 2,3-dihydroimidazo[1,2-b]isoquinolin-5(1-H)-one]
cathodic and anodic peaks (Cyclic voltammetry; subjected to the same potentials as C1): Neither the cathodic nor the anodic peaks were measurable | IC50 [1]: > 25 µM
